Test results taken from patent US20100298305A1, “TIZANIDINE FOR THE TREATMENT OF POST-TRAUMATIC STRESS DISORDER AND NIGHTMARES” (The United States Government, as represented by the …, priority 2008, published 2010).
Where two headings read alike, the source gives them in different places.

What was measured:
PTSD [1] = settings: average dose 2.4 mg; military veterans with PTSD taking or not taking antidepressant; cited from earlier work
PTSD [2] = test: Example 2 case summaries 7-9: switching from once to twice-daily dosing of tizanidine
Protocol: They were continued on aripiprazole, quetiapine, sertraline, and trazodone. Treatment with tizanidine was started for the nightmares and poor sleep.
They were switched from tizanidine 8 mg at bedtime to tizanidine 6 mg in the morning and 8 mg at bedtime. […] They continued on the sertraline, divalproex, and trazodone for initial insomnia. The tizanidine was switched to 4 mg in the morning and 4 mg at bedtime.
Subject was started on tizanidine up to 8 mg at bedtime for nightmares. They also were issued a device to assist with memory problems. A rating scale for common cognitive problems was administered by speech pathology prior to issuing them a personal digital assistant as a memory assist device.
They continued to take sertraline and tizanidine. At a psychology evaluation session, subject completed two self-report instruments of PTSD and depressive symptoms to establish a baseline indication of symptom severity. […] Subject was then switched from tizanidine 8 mg at bedtime to 4 mg twice daily.
After approximately one year of being followed in the psychiatry clinic, they became more willing to try medication and agreed to a trial of tizanidine.

[3] = cited from earlier work
PTSD [4] = settings: Case 10
Excerpt: Given the prior history of ADHD, methylphenidate was cautiously added to the venlafaxine. […] They were referred to a specialty inpatient program for PTSD. During the inpatient program, the antidepressant was switched from venlafaxine to duloxetine.

[5] = fraction of the potency of clonidine; cited from earlier work
PTSD [6] = test: Example 1 case summaries 1-6: tizanidine as adjunctive treatment for PTSD, anxiety, depression, psychosis or impaired cognition; format: in vivo, human
Protocol: Treatment was begun with sertraline 100 mg per day for anxiety and nortriptyline 25 mg at bedtime for headaches. […] Treatment with tizanidine was started and the dose was increased to 8 mg at bedtime.
Tizanidine was started and titrated up to 4 mg at bedtime along with aripiprazole (15 mg at bedtime) and clonazepam (0.5 mg daily).
These medications included sertraline (250 mg daily), divalproex sodium (2500 mg daily), quetiapine (100 mg twice daily and 400 mg at bedtime), amitriptyline (25 mg at bedtime), and tramadol (50 mg as needed for severe headache). […] A trial of tizanidine was started and the dose was titrated up to 8 mg at bedtime.
Pharmacologic Treatment and Response: While on the psychiatry unit, they were treated with sertraline for PTSD and nortriptyline for headaches and depression. […] They were started on tizanidine 4 mg at bedtime.
After approximately one year, subject agreed to a trial of tizanidine as an addition to sertraline. […] They agreed to increase the dose to 4 mg at bedtime and follow-up in four weeks. […] An atypical antipsychotic medication, aripiprazole, was added to their medications.
Treatment with tizanidine 4 mg at bedtime was added to the existing sertraline.

[7] = Case 7, switched from tizanidine 8 mg at bedtime to 6 mg in the morning and 8 mg at bedtime, two months later
[8] = Case 7, tizanidine 4 mg twice daily, one month after switch
[9] = Case 7, tizanidine 8 mg at bedtime, four weeks
[10] = Case 8, tizanidine 4 mg twice daily, two weeks after switch
[11] = Case 9, trial of tizanidine, two months later
[12] = tizanidine 4 mg twice daily with methylphenidate, after four weeks
[13] = Case 2, tizanidine 4 mg at bedtime with aripiprazole 15 mg and clonazepam 0.5 mg, after two months
[14] = Case 2, tizanidine 8 mg at bedtime, other medications stopped, two months later
[15] = Case 3, tizanidine 8 mg at bedtime, after four weeks
[16] = Case 4, tizanidine 4 mg at bedtime
[17] = Case 5, tizanidine 2 mg at bedtime added to sertraline, several weeks
[18] = Case 5, tizanidine 4 mg at bedtime with sertraline, four weeks
[19] = Case 5, tizanidine 4 mg at bedtime, aripiprazole added, eight weeks later
[20] = Case 5, tizanidine 8 mg at bedtime, not taking sertraline and aripiprazole, eight weeks
[21] = Case 5, tizanidine 8 mg at bedtime, primary care appointment one month later
[22] = Case 6, tizanidine 4 mg at bedtime added to sertraline, approximately four weeks

In the case of N=C(N)NC(=O)Cc1c(Cl)cccc1Cl [guanfacine], the “relieving signs or symptoms of PTSD compared to placebo” value (PTSD [1]) is listed as “not effective compared to placebo”.
For Clc1ccc2nsnc2c1NC1=NCCN1 [tizanidine], the daytime anxiety (PTSD [2]; [7]) was “greater reduction to their daytime anxiety”, the “nightmares and sleep quality” value (PTSD [2]; [7]) was “no change to the beneficial impact” and the nightmares (PTSD [2]; Case 7, tizanidine 4 mg twice daily with sertraline, divalproex, trazodone, one month after switch) was “continued to have no nightmares”. For the same molecule, the daytime anxiety (PTSD [2]; [8]) was “no change to daytime anxiety”, the daytime cognition (PTSD [2]; [8]) was “no change in daytime cognition” and the “desire to smoke cigarettes” value (PTSD [2]; [8]) was “definite reduction in their desire to smoke”. The mood (PTSD [2]; [8]) was “no changes in mood”, the sleep (PTSD [2]; [8]) was “continued to have restful sleep” and the nightmares overall (PTSD [2]; Case 7, tizanidine 8 mg at bedtime with aripiprazole, quetiapine, sertraline, trazodone, four weeks) was “greatly reduced nightmares overall”. The “anxiety during the day” value (PTSD [2]; [9]) was “significantly less anxiety during the day”, the combat-related nightmares (PTSD [2]; [9]) was “complete absence of combat-related nightmares” and the hallucinations (PTSD [2]; [9]) was “fewer hallucinations”. The tremor (PTSD [2]; [9]) was “improved tremor”, the sleep (PTSD [2]; Case 8, switched from tizanidine 8 mg at bedtime to 4 mg twice daily, two weeks later) was “no change in sleep” and the “energy (new onset, gradually improving)” value (PTSD [2]; [10]) was “mild decrease in energy”. For the same molecule, the “hypervigilance during the day” value (PTSD [2]; [10]) was “reduced hypervigilance during the day”, the “irritability during the day” value (PTSD [2]; [10]) was “less irritability during the day” and the nightmares (PTSD [2]; [10]) was “eliminates nightmares”. For the same molecule, the “feeling better the next day” value (PTSD [2]; Case 8, tizanidine 8 mg at bedtime with sertraline) was “significant improvement”, the cognitive function (PTSD [2]; Case 8, tizanidine up to 8 mg at bedtime with sertraline, memory assist device also issued, following weeks) was “improved” and the “twice-daily compared to once-daily dosing” value (PTSD [2]; Case 9, tizanidine 4 mg twice daily versus 8 mg at bedtime, same total milligrams) was “clear superiority of twice-daily”. For the same molecule, the cognitive symptoms (PTSD [2]; [11]) was “unchanged”, the headaches (PTSD [2]; [11]) was “much less intense” and the mood and energy (PTSD [2]; [11]) was “improved”. The sleep (PTSD [2]; [11]) was “better”, the anxiety (PTSD [2]; Case 9, trial of tizanidine, two months later, still startled easily and hypervigilant) was “less anxiety” and the peak serum levels ([3]; single 4 mg capsule) was roughly 4.0 ng/mL. For the same molecule, the peak serum levels ([3]; single 4 mg tablet) was “about 2.7 ng/ml”, the nightmares (PTSD [4]; [12]) was “absence of nightmares” and the overall helpfulness (PTSD [4]; [12]) was “extremely helpful”. For the same molecule, the sleep (PTSD [4]; [12]) was “greatly improved sleep”, the daytime anxiety (PTSD [4]; when taking tizanidine 4 mg twice daily) was “less daytime anxiety” and the “potency in lowering blood pressure relative to clonidine” value [5] was “one-tenth to one-fiftieth”. The daytime anxiety (PTSD [6]; Case 1, tizanidine 8 mg at bedtime, after two weeks) was “less daytime anxiety”, the reduction in nightmares (PTSD [6]; Case 1, tizanidine 8 mg at bedtime, after two weeks, subject report) was roughly 50% and the alcohol use (PTSD [6]; [13]) was “one to two”. The mood and energy (PTSD [6]; [13]) was “somewhat better”, the “other signs and symptoms of Major Depression, PTSD, and Psychosis NOS” value (PTSD [6]; [13]) was “unchanged” and the overall condition (PTSD [6]; [13]) was “mildly improved”. For the same molecule, the panic attacks (PTSD [6]; [13]) was “had not experienced any panic attacks”, the overall condition (PTSD [6]; Case 2, tizanidine 8 mg at bedtime, other medications stopped by subject, two months later) was “markedly improved” and the alcohol use (PTSD [6]; Case 2, tizanidine 8 mg at bedtime, other medications stopped, preceding two months) was “had not drunk any alcohol”. For the same molecule, the daytime anxiety (PTSD [6]; [14]) was “less anxious during the day”, the energy (PTSD [6]; [14]) was “improved” and the hallucinations (PTSD [6]; [14]) was “had stopped”. For the same molecule, the “intrusive thoughts of combat or the Iraq war” value (PTSD [6]; [14]) was “less frequent”, the nightmares (PTSD [6]; [14]) was “much less frequent” and the panic attacks (PTSD [6]; [14]) was “able to leave their house without panic attacks”. The sleep (PTSD [6]; [14]) was “improved”, the combat-related nightmares (PTSD [6]; [15]) was “complete absence of combat-related nightmares” and the “concentration and attention during the day” value (PTSD [6]; [15]) was “easier to concentrate”. For the same molecule, the daytime anxiety (PTSD [6]; [15]) was “substantial decrease in daytime anxiety”, the nightmares overall (PTSD [6]; [15]) was “substantial reduction in nightmares overall” and the sleep (PTSD [6]; [15]) was “significantly improved”. For the same molecule, the “tremor, at rest and with action” value (PTSD [6]; [15]) was “improved”, the hallucinations (PTSD [6]; Case 3, tizanidine 8 mg at bedtime, after four weeks, quetiapine dose decreased by subject) was “greatly reduced” and the “irritability and anxiety during the day” value (PTSD [6]; [16]) was “less irritable and less anxious”. The nightmares (PTSD [6]; [16]) was “reduced their nightmares”, the quality of sleep (PTSD [6]; [16]) was “improved the quality of their sleep” and the nightmares (PTSD [6]; Case 4, tizanidine 4 mg at bedtime, approximately three weeks after starting) was “somewhat improved”. For the same molecule, the nightmares (PTSD [6]; [17]) was “no change to nightmares”, the “side effects or other adverse effects” value (PTSD [6]; [17]) was “no side effects or other adverse effects” and the nightmares frequency (PTSD [6]; [18]) was 3-4 times per week. The overall condition (PTSD [6]; [18]) was “not doing well”, the panic attacks frequency (PTSD [6]; [18]) was 2-3 times per week and the alcohol use (PTSD [6]; [19]) was “one to two”. For the same molecule, the “mood and energy level” value (PTSD [6]; [19]) was “an improvement in their mood and energy level”, the overall improvement (PTSD [6]; [19]) was “limited improvement” and the “remainder of PTSD and depressive symptoms” value (PTSD [6]; [19]) was “unchanged”. For the same molecule, the panic attacks (PTSD [6]; Case 5, tizanidine 4 mg at bedtime, aripiprazole added, eight weeks later, for several weeks) was “free from panic attacks”, the side-effects (PTSD [6]; Case 5, tizanidine 4 mg at bedtime, eight weeks later) was “no side-effects” and the alcohol consumption (PTSD [6]; [20]) was “decreased to less than once per month”. For the same molecule, the “anxiety and energy during the day” value (PTSD [6]; [20]) was “less anxious and more energetic”, the nightmares (PTSD [6]; [20]) was “improved” and the overall improvement (PTSD [6]; [20]) was “substantial improvement”. For the same molecule, the panic attacks (PTSD [6]; [20]) was “continued to be absent”, the anxiety (PTSD [6]; [21]) was “less anxiety” and the depression (PTSD [6]; [21]) was “improved depression”. The hallucinations (PTSD [6]; [21]) was “denied having any hallucinations”, the nightmares (PTSD [6]; [21]) was “decreased nightmares” and the “feeling rested the next day” value (PTSD [6]; [22]) was “more rested the next day”. The night sweats (PTSD [6]; [22]) was “fewer night sweats”, the nightmares (PTSD [6]; [22]) was “reduction in their nightmares” and the overall sleep quality (PTSD [6]; [22]) was “improved”. The sleep time (PTSD [6]; [22]) was “had not increased their sleep time”.
